Consider two molecules from US5128254A (The United States of America as represented by the …, priority 1989, dated 1992).

In assay [1] the target is T1, D2 receptor (long isoform, D2L) (Rattus norvegicus, UniProt P61169). As to conditions: competition for [3H]methylspiperone binding.
Experimental: (§1) A 2.4-kb Xba I-Xho I fragment containing the entire coding region and most of the D2 receptor cDNA was excised from the pBluescript clone and ligated into the corresponding restriction sites of the pEUK-C1 vector (Clontech, Palo Alto, Calif.) The resulting plasmid, pEUK-D2L, was then transfected into COS-7 cells using a modified CaPO4 precipitation method (Clontech). The cells were treated with 3 mM sodium butyrate after 48 hr and were harvested after 72 hr.
For assay [2], the target named is T1, D2 receptor (long isoform, D2L). Put plainly: biochemical. As to conditions: transfected COS-7 cell membranes.
Experimental: as §1

T1 sequence (P61169 whole entry, canonical isoform): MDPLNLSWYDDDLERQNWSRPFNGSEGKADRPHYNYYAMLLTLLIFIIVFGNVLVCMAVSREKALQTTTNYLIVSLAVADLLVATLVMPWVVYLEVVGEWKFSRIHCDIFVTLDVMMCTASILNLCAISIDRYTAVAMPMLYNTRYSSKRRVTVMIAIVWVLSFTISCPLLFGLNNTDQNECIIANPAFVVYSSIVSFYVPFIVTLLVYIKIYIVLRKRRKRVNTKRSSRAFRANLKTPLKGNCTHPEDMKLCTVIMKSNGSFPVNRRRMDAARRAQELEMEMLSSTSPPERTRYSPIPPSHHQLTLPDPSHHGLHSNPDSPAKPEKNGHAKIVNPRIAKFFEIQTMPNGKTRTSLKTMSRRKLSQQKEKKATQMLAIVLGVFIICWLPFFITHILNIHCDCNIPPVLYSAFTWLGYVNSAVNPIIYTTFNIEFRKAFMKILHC

As to `NCCc1ccc(O)c(O)c1` [Dopamine], the “effect of guanine nucleotides on competition curve” value in assay [1] (data not shown) was “not significantly affected by guanine nucleotides”. Besides, the “Hill coefficient of competition curve” value in assay [1] (transfected COS-7 cell membranes) is recorded as “≈ 1”.
Turning to `CN1CN(c2ccccc2)C2(CCN(CCCC(=O)c3ccc(F)cc3)CC2)C1=O` [[3H]methylspiperone], the dissociation constant Kd – broadly, a measure of binding affinity in units of concentration – in assay [2] (affinity of [3H]methylspiperone saturation binding, mean ± SEM) was 0.0621 ± 0.0021 nM; in assay [2] (calculated KD of [3H]methylspiperone binding (Scatchard), one experiment representative of three (FIG. 2A)), 0.0641 nM.
